# Test results: US10736864B2, “Immunotherapeutic agent” (Immodulon Therapeutics Limited, priority 2016, dated 2020)
# How the values were obtained:
# [1] = system: splenocytes stimulated in vitro with ovalbumin; assay: In vitro splenocyte culture from treated mice, ovalbumin stimulation (cytokine ELISA); assay type: in vivo, BALB/c mice; settings: FIG. 3B; mice treated 5 μg s.c.; allergen (ovalbumin) stimulation; vs buffer
# [2] = system: allergic mice challenged with ovalbumin; assay: Murine model of allergic pulmonary inflammation: treatment studies (BAL cells and cytokines); assay type: in vivo, BALB/c mice; settings: vs vehicle; for number of eosinophils recovered in the BAL fluid / numbers of macrophages in BAL fluid / total cellular infiltrate in BAL fluid / IL-5 concentrations in the BAL fluid / IL-10 concentrations in the BAL fluid: Experiments 5 and 6, lipid 5 μg s.c.; for number of eosinophils recovered in the BAL fluid / numbers of macrophages in BAL fluid / total cellular infiltrate in BAL fluid: M. vaccae 0.1 mg s.c.
# [3] = system: freshly isolated murine peritoneal macrophages; assay: LPS-induced IL-6 secretion in freshly isolated peritoneal macrophages (ELISA); assay type: cell-based, BALB/c mice
# Description: Experiment 7 was carried out to resolve if 10(Z)-hexadecenoic acid has a direct effect on immune cells. Macrophages were selected for this study on account of their ubiquity and diverse role in immune processes. To simulate inflammation, freshly isolated mouse peritoneal macrophages were challenged with lipopolysaccharide (LPS; 1 μg/mL) ex vivo.
# Murine peritoneal macrophages were isolated as previously described (Zhang, X. et al. (2008)). Briefly, mice received one 1 ml i.p. injection of 3% thioglycollate medium (Cat. No. 9000-294, VWR, Radnor, Pa., USA). Ninety-six hours later, macrophages were collected in DPBS (Cat. No. 14190136, Invitrogen, Carlsbad, Calif., USA). Cells were centrifuged and resuspended in DMEM/F-12 (Cat. No. 10565018, Invitrogen) supplemented to be 10% (v/v) fetal bovine serum (Cat. No. 16000036, Invitrogen) and 1% penicillin/streptomycin (Cat. No. 15140148, Invitrogen). One mouse yielded enough cells for one experimental replicate. 1×10^5 cells/well were allowed to adhere for 1.5 h before being washed with DPBS. 10(Z)-hexadecenoic acid was dissolved in DMEM/F-12 with 0.5% (v/v) dimethyl sulfoxide (Cat. No. D8418, Sigma-Aldrich). The macrophages were incubated with either 10(Z)-hexadecenoic acid (0.4 μM, 4 μM, 20 μM, 100 μM, 500 μM, 1000 μM) or DMEM/F-12 for 1 h before being stimulated with 1 μg/ml lipopolysaccharide (serotype 0127:B8, Sigma-Aldrich, St. Louis, Mo., USA). Culture supernatants were collected at 6, 12, and 24 h post-stimulation.
# Cell culture supernatants from freshly isolated peritoneal macrophages were diluted 1:200, and IL-6 was measured using sandwiched ELISA (Cat. No. 431304, Biolegend, San Diego, Calif., USA). All samples were measured in duplicate.
# [4] = system: freshly isolated murine peritoneal macrophages; assay: Proinflammatory cytokine and chemokine ligand mRNA levels (RNAseq) in LPS-stimulated peritoneal macrophages; assay type: cell-based
# Description: This can be measured using RNAseq analysis of freshly isolated murine peritoneal macrophages stimulated with LPS, in the presence or absence of 10(Z)-hexadecenoic acid. […] Compounds of the invention are therefore useful in inhibiting the proinflammatory cascade that contributes to the pathology of sepsis.
# This difference was observable as early as 6 h after LPS challenge, and was sustained for at least 24 h. The effect also appeared to be concentration and time dependent. The lowest concentration of 0.4 μM was ineffective at 6 h, but reduced IL-6 secretion to 40% of control levels at 24 h. This time and concentration dependence may indicate that a receptor-mediated transcriptional change is occurring. In contrast to the effects of 10(Z)-hexadecenoic acid on LPS-induced IL-6 secretion, it had no effect of IL-6 secretion by itself (FIG. 4D). A transcriptional change was confirmed by measurement of pro-inflammatory cytokine and chemokine ligand mRNA levels in macrophages pre-treated with 10(Z)-hexadecenoic acid for 1 h prior to LPS treatment (Table 2).
# [5] = system: freshly isolated murine peritoneal macrophages; assay: Sulforhodamine B (SRB) macrophage cell viability / cytotoxicity assay
# Description: Sulforhodamine B (SRB) was used to assess cytotoxic effects of various concentrations of 10(Z)-hexadecenoic acid (10 μM, 50 μM, 100 μM, 250 μM, 500 μM, 1000 μM) after 0, 6, 12, 24, 48, and 72 h of incubation with freshly isolated murine peritoneal macrophages. Percent control growth is expressed as % viability and is a ratio of the amount of growth that occurred with treatment over the amount of growth that occurred in media. […] Data are expressed as mean±SEM of 3-7 mice per condition.
# Cytotoxicity was determined using the sulforhodamine B (SRB) colorimetric assay, as previously described (Vichai and Kirtikara, 2006). Briefly, without removing the culture media, cells were fixed by adding cold trichloroacetic acid and incubated at 4° C. for 1 h. The plates were washed with slow-running tap water and set out to dry overnight. Then, 0.057% SRB (Cat. No. AC333130050, Fisher, Pittsburgh, Pa., USA), solubilized in 10 mMTris (Cat. No. BP153, Fisher), was added to each well. After 30 min, plates were washed with 1% acetic acid and set out to dry overnight. SRB was measured at 490 nm on a Synergy HT microplate reader (Part Number 7091000, Biotek, Winooski, Vt., USA). Cell viability was expressed as the ratio of experimental and control growth.
compound,measurement,setting,value
"CCCCC/C=C\CCCCCCCCC(=O)OCC(COC(=O)CCCCCCCC/C=C\CCCCC)OC(=O)CCCCCCCC/C=C\CCCCC [1,2,3-tri[Z-10-hexadecenoyl]glycerol]",IL-5 levels in the supernatant of splenocytes,[1],decrease
same,IL-10 levels in the supernatant of splenocytes,[1],increase
same,number of eosinophils recovered in the BAL fluid,[2],reduction
same,numbers of macrophages in BAL fluid,[2],not increased
same,total cellular infiltrate in BAL fluid,[2],reduction
same,IL-5 concentrations in the BAL fluid,[2],decrease
same,IL-10 concentrations in the BAL fluid,[2],increase
CCCCC/C=C\CCCCCCCCC(=O)O [10(Z)-hexadecenoic acid],numbers of neutrophils in BAL fluid,[2]; Experiment 6,did not induce increases
same,number of eosinophils recovered in the BAL fluid,[2],significant reduction
same,numbers of macrophages in BAL fluid,[2],did not induce increases
same,total cellular infiltrate in BAL fluid,[2],significant reduction
same,IL-5 concentrations in the BAL fluid,[2],decrease
same,IL-10 concentrations in the BAL fluid,[2],increase
same,LPS-induced IL-6 secretion,"[3]; 0.4 μM, 6 h after LPS",ineffective
same,LPS-induced IL-6 secretion,"[3]; 0.4 μM, 24 h after LPS",40 % of control levels
same,LPS-induced IL-6 secretion,"[3]; 1 h preincubation (0.4-1000 μM), LPS 1 μg/mL, 6, 12, 24 h, vs media alone",secreted less IL-6
same,IL-6 secretion by itself,"[3]; absence of LPS, FIG. 4D",no effect
same,Ccl17 mRNA Mean #Reads s148.2 + LPS,"[4]; preincubation then LPS, n = 3, LPS alone 24",3
same,II11 mRNA Mean #Reads s148.2 + LPS,"[4]; preincubation then LPS, n = 3, LPS alone 26",5
same,Ccl22 mRNA Mean #Reads s148.2 + LPS,"[4]; preincubation then LPS, n = 3, LPS alone 327",117
same,Ccl4 mRNA Mean #Reads s148.2 + LPS,"[4]; preincubation then LPS, n = 3, LPS alone 603",305
same,II12a mRNA Mean #Reads s148.2 + LPS,"[4]; preincubation then LPS, n = 3, LPS alone 714",268
same,Ccl6 mRNA Mean #Reads s148.2 + LPS,"[4]; preincubation then LPS, n = 3, LPS alone 810",368
same,Ccl7 mRNA Mean #Reads s148.2 + LPS,"[4]; preincubation then LPS, n = 3, LPS alone 1182",441
same,II6 mRNA Mean #Reads s148.2 + LPS,"[4]; preincubation then LPS, n = 3, LPS alone 1302",305
same,Tnf mRNA Mean #Reads s148.2 + LPS,"[4]; preincubation then LPS, n = 3, LPS alone 2098",1023
same,Cxcl2 mRNA Mean #Reads s148.2 + LPS,"[4]; preincubation then LPS, n = 3, LPS alone 4726, functional homologue of human IL-8",2680
same,Ccl2 mRNA Mean #Reads s148.2 + LPS,"[4]; preincubation then LPS, n = 3, LPS alone 5656",2234
same,Ccl3 mRNA Mean #Reads s148.2 + LPS,"[4]; preincubation then LPS, n = 3, LPS alone 6693",4067
same,II1b mRNA Mean #Reads s148.2 + LPS,"[4]; preincubation then LPS, n = 3, LPS alone 15,957",5349
same,II1a mRNA Mean #Reads s148.2 + LPS,"[4]; preincubation then LPS, n = 3, LPS alone 16533",8500
same,Ccl2 mRNA Effect,[4]; vs LPS alone,↓
same,Ccl2 mRNA Fold-change,[4]; vs LPS alone,0.39
same,Ccl2 mRNA Log2 Fold-change,[4]; vs LPS alone,−1.34
same,Ccl3 mRNA Effect,[4]; vs LPS alone,↓
same,Ccl3 mRNA Fold-change,[4]; vs LPS alone,0.61
same,Ccl3 mRNA Log2 Fold-change,[4]; vs LPS alone,−0.72
same,Ccl4 mRNA Effect,[4]; vs LPS alone,↓
same,Ccl4 mRNA Fold-change,[4]; vs LPS alone,0.51
same,Ccl4 mRNA Log2 Fold-change,[4]; vs LPS alone,−0.98
same,Ccl6 mRNA Effect,[4]; vs LPS alone,↓
same,Ccl6 mRNA Fold-change,[4]; vs LPS alone,0.45
same,Ccl6 mRNA Log2 Fold-change,[4]; vs LPS alone,−1.14
same,Ccl7 mRNA Effect,[4]; vs LPS alone,↓
same,Ccl7 mRNA Fold-change,[4]; vs LPS alone,0.37
same,Ccl7 mRNA Log2 Fold-change,[4]; vs LPS alone,−1.42
same,Ccl17 mRNA Effect,[4]; vs LPS alone,↓
same,Ccl17 mRNA Fold-change,[4]; vs LPS alone,0.12
same,Ccl17 mRNA Log2 Fold-change,[4]; vs LPS alone,−3.08
same,Ccl22 mRNA Effect,[4]; vs LPS alone,↓
same,Ccl22 mRNA Fold-change,[4]; vs LPS alone,0.36
same,Ccl22 mRNA Log2 Fold-change,[4]; vs LPS alone,−1.48
same,Cxcl2 mRNA Effect,[4]; vs LPS alone,↓
same,Cxcl2 mRNA Fold-change,[4]; vs LPS alone,0.57
same,Cxcl2 mRNA Log2 Fold-change,[4]; vs LPS alone,−0.82
same,II1a mRNA Effect,[4]; vs LPS alone,↓
same,II1a mRNA Fold-change,[4]; vs LPS alone,0.51
same,II1a mRNA Log2 Fold-change,[4]; vs LPS alone,−0.96
same,II1b mRNA Effect,[4]; vs LPS alone,↓
same,II1b mRNA Fold-change,[4]; vs LPS alone,0.34
same,II1b mRNA Log2 Fold-change,[4]; vs LPS alone,−2.16
same,II6 mRNA Effect,[4]; vs LPS alone,↓
same,II6 mRNA Fold-change,[4]; vs LPS alone,0.23
same,II6 mRNA Log2 Fold-change,[4]; vs LPS alone,−2.09
same,II11 mRNA Effect,[4]; vs LPS alone,↓
same,II11 mRNA Fold-change,[4]; vs LPS alone,0.20
same,II11 mRNA Log2 Fold-change,[4]; vs LPS alone,−2.35
same,II12a mRNA Effect,[4]; vs LPS alone,↓
same,II12a mRNA Fold-change,[4]; vs LPS alone,0.37
same,II12a mRNA Log2 Fold-change,[4]; vs LPS alone,−1.42
same,Tnf mRNA Effect,[4]; vs LPS alone,↓
same,Tnf mRNA Fold-change,[4]; vs LPS alone,0.49
same,Tnf mRNA Log2 Fold-change,[4]; vs LPS alone,−1.04
same,viable macrophages,"[5]; 1 mM, at most time points (0-72 h)",less than 40%
same,macrophage viability,"[5]; all other concentrations (10-500 μM), vs media controls",as viable as or more viable than media controls
